Experimental findings from patent US10092570B2 (Incyte Corporation, priority 2011, dated 2018) are described below.

Sequence of PI3Kδ (p110δ/p85α) (O00329 whole entry): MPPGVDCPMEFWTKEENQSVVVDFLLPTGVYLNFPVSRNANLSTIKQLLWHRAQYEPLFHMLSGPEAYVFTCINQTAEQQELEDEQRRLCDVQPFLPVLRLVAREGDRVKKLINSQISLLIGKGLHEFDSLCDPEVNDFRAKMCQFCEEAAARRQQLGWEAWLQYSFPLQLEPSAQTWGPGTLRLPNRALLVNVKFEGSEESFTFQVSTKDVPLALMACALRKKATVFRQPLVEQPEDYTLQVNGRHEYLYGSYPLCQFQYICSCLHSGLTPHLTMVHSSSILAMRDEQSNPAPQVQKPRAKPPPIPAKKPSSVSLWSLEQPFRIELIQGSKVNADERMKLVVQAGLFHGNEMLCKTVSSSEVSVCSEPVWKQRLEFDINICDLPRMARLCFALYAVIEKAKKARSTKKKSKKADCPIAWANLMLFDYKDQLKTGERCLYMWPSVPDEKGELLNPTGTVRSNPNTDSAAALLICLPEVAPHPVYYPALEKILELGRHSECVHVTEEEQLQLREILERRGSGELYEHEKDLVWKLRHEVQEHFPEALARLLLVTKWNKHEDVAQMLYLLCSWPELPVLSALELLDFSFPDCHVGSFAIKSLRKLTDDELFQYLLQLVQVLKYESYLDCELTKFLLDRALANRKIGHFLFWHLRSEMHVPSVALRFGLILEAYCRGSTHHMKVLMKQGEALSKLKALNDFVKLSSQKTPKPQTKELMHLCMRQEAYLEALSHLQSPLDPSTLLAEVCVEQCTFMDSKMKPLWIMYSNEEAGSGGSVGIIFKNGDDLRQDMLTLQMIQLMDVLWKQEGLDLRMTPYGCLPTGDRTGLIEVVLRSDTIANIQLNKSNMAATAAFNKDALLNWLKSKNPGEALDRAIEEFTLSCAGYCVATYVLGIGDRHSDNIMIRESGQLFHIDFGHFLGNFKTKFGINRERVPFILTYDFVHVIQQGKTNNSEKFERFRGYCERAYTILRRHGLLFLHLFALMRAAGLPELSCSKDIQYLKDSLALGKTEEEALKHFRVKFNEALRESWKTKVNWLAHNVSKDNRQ
Sequence of PI3Kδ (p110δ/p85α) (P27986 whole entry partner): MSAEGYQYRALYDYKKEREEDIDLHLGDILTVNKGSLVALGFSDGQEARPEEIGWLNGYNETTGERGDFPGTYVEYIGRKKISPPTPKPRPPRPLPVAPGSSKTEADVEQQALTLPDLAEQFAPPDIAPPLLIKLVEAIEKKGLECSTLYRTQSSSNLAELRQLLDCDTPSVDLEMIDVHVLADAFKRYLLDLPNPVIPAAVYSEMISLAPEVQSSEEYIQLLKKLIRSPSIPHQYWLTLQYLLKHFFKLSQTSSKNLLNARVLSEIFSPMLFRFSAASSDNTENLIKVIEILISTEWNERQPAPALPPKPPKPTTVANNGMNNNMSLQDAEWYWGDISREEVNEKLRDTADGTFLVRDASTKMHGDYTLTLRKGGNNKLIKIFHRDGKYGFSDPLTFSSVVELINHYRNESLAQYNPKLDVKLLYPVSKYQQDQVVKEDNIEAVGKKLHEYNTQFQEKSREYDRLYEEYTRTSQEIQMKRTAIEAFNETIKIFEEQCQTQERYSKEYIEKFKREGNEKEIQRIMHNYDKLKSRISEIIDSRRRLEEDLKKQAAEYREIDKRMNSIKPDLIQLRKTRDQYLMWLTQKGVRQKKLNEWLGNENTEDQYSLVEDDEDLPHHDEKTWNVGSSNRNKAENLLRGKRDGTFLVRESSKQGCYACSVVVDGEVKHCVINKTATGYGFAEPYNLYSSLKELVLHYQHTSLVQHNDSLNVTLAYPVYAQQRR

The target in this experiment is PI3Kδ (p110δ/p85α) (Homo sapiens (Human), UniProt O00329). The experiment is described as follows: Example A3: PI3Kδ scintillation proximity assay. Type of experiment: biochemical. The conditions noted are these: scintillation proximity assay, 20 μM ATP, 4 nM PI3Kδ; read-out: PI3Kδ SPA IC50. Put shortly:
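p110δ/p85α (4 nM) phosphorylated 20 μM PIP2 with 20 μM ATP plus [γ-33P]ATP in MOPS pH 6.7, MgCl2, DTT, CHAPS, 0.5% DMSO, at RT. Stopped with EDTA/excess ATP, product captured on WGA SPA beads overnight and counted; IC50 from percent control activity versus log inhibitor.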
In general terms: SPA uses beads or plates that emit light when radiolabelled molecules are held near them.
As to `COc1c(C(C)n2nc(C(F)F)c3c(N)ncnc32)cc(C#N)c(C)c1C1CN(CC(C)(C)O)C1` (racemic) [Example 133, 5-{1-[4-Amino-3-(difluoromethyl)-1H-pyrazolo[3,4-d]pyrimidin-1-yl]ethyl}-3-[1-(2-hydroxy-2-methylpropyl)azetidin-3-yl]-4-methoxy-2-methylbenzonitrile], the IC50 (in general, the concentration needed to halve the response being measured) is less than 10 nM.

`CCOc1c(C(C)n2nc(C)c3c(N)ncnc32)cc(Cl)c(C#N)c1-c1cncc(-c2ncco2)c1` (racemic) [Example 339, 4-[1-(4-amino-3-methyl-1H-pyrazolo[3,4-d]pyrimidin-1-yl)ethyl]-6-chloro-3-ethoxy-2-[5-(1,3-oxazol-2-yl)pyridin-3-yl]benzonitrile]: the IC50 was less than 10 nM.

Turning to `CCN1CC(c2c(C)c(Cl)cc(C(C)n3nc(C)c4c(N)ncnc43)c2OC)C1` (racemic) [Example 6, 1-{1-[5-Chloro-3-(1-ethylazetidin-3-yl)-2-methoxy-4-methylphenyl]ethyl}-3-methyl-1H-pyrazolo[3,4-d]pyrimidin-4-amine], the IC50 is less than 10 nM.

Turning to `CCOc1c(C(C)n2nc(C)c3c(N)ncnc32)cc(Cl)c(C#N)c1C1CN(C(C)(C)C(N)=O)C1` (single isomer, unassigned) [Example 239, 2-(3-{3-[1-(4-Amino-3-methyl-1H-pyrazolo[3,4-d]pyrimidin-1-yl)ethyl]-5-chloro-6-cyano-2-ethoxyphenyl}azetidin-1-yl)-2-methylpropanamide], the IC50 was less than 10 nM.

As to `COc1c(C(C)n2cc(C)c(=O)c3c(N)ncnc32)cc(Cl)c(C)c1-c1ccc(C(=O)N(C)C)nc1` (centres unmarked) [Example 360, 5-{3-[1-(4-Amino-6-methyl-5-oxopyrido[2,3-d]pyrimidin-8(5H)-yl)ethyl]-5-chloro-2-methoxy-6-methylphenyl}-N,N-dimethylpyridine-2-carboxamide bis(trifluoroacetate)], the IC50 was less than 10 nM.

Consider `COc1c(C(C)n2nc(C)c3c(N)ncnc32)cc(Cl)c(C)c1C1CN(CC#N)C1` (single isomer, unassigned) [Example 105, (3-{3-[1-(4-Amino-3-methyl-1H-pyrazolo[3,4-d]pyrimidin-1-yl)ethyl]-5-chloro-2-methoxy-6-methylphenyl}azetidin-1-yl)acetonitrile], for which the IC50 is less than 10 nM.

On to `COc1c(C(C)n2nc(C(F)F)c3c(N)ncnc32)cc(C#N)c(C)c1C1CN(C[C@H](C)O)C1` (stereo partly drawn) [Example 131, 5-{1-[4-Amino-3-(difluoromethyl)-1H-pyrazolo[3,4-d]pyrimidin-1-yl]ethyl}-3-{1-[(2S)-2-hydroxypropyl]azetidin-3-yl}-4-methoxy-2-methylbenzonitrile], for which the IC50 is less than 10 nM.

As to `COc1c(C(C)n2nc(C)c3c(N)ncnc32)cc(Cl)c(C#N)c1C1CN(CC2CCOC2)C1` (single isomer, unassigned) [Example 279, 4-[1-(4-Amino-3-methyl-1H-pyrazolo[3,4-d]pyrimidin-1-yl)ethyl]-6-chloro-3-methoxy-2-[1-(tetrahydrofuran-3-ylmethyl)azetidin-3-yl]benzonitrile], the IC50 is less than 10 nM.

For the compound `COc1c(C(C)n2nc(C)c3c(N)ncnc32)cc(Cl)c(C)c1-c1cnn(C(C)C(=O)N(C)C)c1` (centres unmarked) [Example 207, 2-(4-(3-(1-(4-amino-3-methyl-1H-pyrazolo[3,4-d]pyrimidin-1-yl)ethyl)-5-chloro-2-methoxy-6-methylphenyl)-1H-pyrazol-1-yl)-N,N-dimethylpropanamide], the IC50 was less than 10 nM.

Consider `CCOc1c(C(C)n2nc(C#C[C@H](C)O)c3c(N)ncnc32)cc(Cl)c(C)c1-c1ccc(C(=O)N(C)C)nc1` (stereo partly drawn) [Example 80, 5-[3-(1-{4-Amino-3-[(3S)-3-hydroxybut-1-yn-1-yl]-1H-pyrazolo[3,4-d]pyrimidin-1-yl}ethyl)-5-chloro-2-ethoxy-6-methylphenyl]-N,N-dimethylpyridine-2-carboxamide bis(trifluoroacetate)], for which the half-maximal inhibitory concentration (IC50) is less than 10 nM.

Take `COc1c(C(C)n2nc(C)c3c(N)ncnc32)cc(Cl)c(C)c1C1CCN(CC(C)(C)O)CC1` (racemic) [Example 164, 1-(4-{3-[1-(4-Amino-3-methyl-1H-pyrazolo[3,4-d]pyrimidin-1-yl)ethyl]-5-chloro-2-methoxy-6-methylphenyl}piperidin-1-yl)-2-methylpropan-2-ol]: the IC50 is less than 10 nM.

Turning to `CCOc1c(C(C)n2nc(C)c3c(N)ncnc32)cc(Cl)c(C#N)c1C1CN(C(=O)C(C)(C)O)C1` (single isomer, unassigned) [Example 247, 4-[1-(4-Amino-3-methyl-1H-pyrazolo[3,4-d]pyrimidin-1-yl)ethyl]-6-chloro-3-ethoxy-2-[1-(2-hydroxy-2-methylpropanoyl)azetidin-3-yl]benzonitrile], the IC50 is less than 10 nM.

For `COc1c(C(C)n2nc(C(F)F)c3c(N)ncnc32)cc(C#N)c(C)c1C1CN(C(C)C)C1` (racemic) [Example 128, 5-{1-[4-amino-3-(difluoromethyl)-1H-pyrazolo[3,4-d]pyrimidin-1-yl]ethyl}-3-(1-isopropylazetidin-3-yl)-4-methoxy-2-methylbenzonitrile], the IC50 was less than 10 nM.

For the compound `CCOc1c(C(C)n2nc(CC#N)c3c(N)ncnc32)cc(Cl)c(C)c1-c1ccc(C(=O)N(C)C)nc1` (racemic) [Example 165, 5-(3-{1-[4-Amino-3-(cyanomethyl)-1H-pyrazolo[3,4-d]pyrimidin-1-yl]ethyl}-5-chloro-2-ethoxy-6-methylphenyl)-N,N-dimethylpyridine-2-carboxamide], the IC50 is less than 10 nM.

With `COc1c(C(C)n2nc(C)c3c(N)ncnc32)cc(Cl)c(C#N)c1C1CN(C(C)=O)C1` (single isomer, unassigned) [Example 281, 2-(1-Acetylazetidin-3-yl)-4-[1-(4-amino-3-methyl-1H-pyrazolo[3,4-d]pyrimidin-1-yl)ethyl]-6-chloro-3-methoxybenzonitrile], the IC50 was less than 10 nM.

For the compound “4-[1-(4-Amino-3-methyl-1H-pyrazolo[3,4-d]pyrimidin-1-yl)ethyl]-6-chloro-2-[1-(2-hydroxyethyl)azetidin-3-yl]-3-methoxybenzonitrile-d4 [Example 297]”, the IC50 is less than 10 nM.

Turning to `COc1c(C(C)n2nc(C)c3c(N)ncnc32)cc(Cl)c(C)c1C1CN(C2(CC#N)CCC2)C1` (single isomer, unassigned) [Example 161, [1-(3-{3-[1-(4-Amino-3-methyl-1H-pyrazolo[3,4-d]pyrimidin-1-yl)ethyl]-5-chloro-2-methoxy-6-methylphenyl}azetidin-1-yl)cyclobutyl]acetonitrile], the IC50 was less than 10 nM.

For `CCOc1c(C(C)n2nc(C)c3c(N)ncnc32)cc(Cl)c(C)c1C1CN(C[C@@H](C)O)C1` (stereo partly drawn) [Example 97, (2R)-1-(3-{3-[1-(4-Amino-3-methyl-1H-pyrazolo[3,4-d]pyrimidin-1-yl)ethyl]-5-chloro-2-ethoxy-6-methylphenyl}azetidin-1-yl)propan-2-ol], the IC50 is less than 10 nM.

With `COc1c(C(C)n2nc(C)c3c(N)ncnc32)cc(Cl)c(C)c1C1CN(CC(F)(F)F)C1` (single isomer, unassigned) [Example 108, 1-(1-{5-Chloro-2-methoxy-4-methyl-3-[1-(2,2,2-trifluoroethyl)azetidin-3-yl]phenyl}ethyl)-3-methyl-1H-pyrazolo[3,4-d]pyrimidin-4-amine], the IC50 was less than 10 nM.

With `COc1c(C(C)n2nc(C)c3c(N)ncnc32)cc(Cl)c(C#N)c1C1CN(C(=O)NC(C)(C)C)C1` (single isomer, unassigned) [Example 292, 3-{3-[1-(4-Amino-3-methyl-1H-pyrazolo[3,4-d]pyrimidin-1-yl)ethyl]-5-chloro-6-cyano-2-methoxyphenyl}-N-(tert-butyl)azetidine-1-carboxamide], the IC50 is less than 10 nM.

In the case of `CNC(=O)N1CC(c2c(C)c(Cl)cc(C(C)n3nc(C)c4c(N)ncnc43)c2OC)C1` (racemic) [Example 10, 3-{3-[1-(4-Amino-3-methyl-1H-pyrazolo[3,4-d]pyrimidin-1-yl)ethyl]-5-chloro-2-methoxy-6-methylphenyl}-N-methylazetidine-1-carboxamide], the IC50 is less than 10 nM.

As to `COc1c(C(C)n2nc(C(F)F)c3c(N)ncnc32)cc(C#N)c(C)c1C1CN(CCO)C1` (racemic) [Example 130, 5-{1-[4-Amino-3-(difluoromethyl)-1H-pyrazolo[3,4-d]pyrimidin-1-yl]ethyl}-3-[1-(2-hydroxyethyl)azetidin-3-yl]-4-methoxy-2-methylbenzonitrile], the concentration for half-maximal inhibition (IC50) was less than 10 nM.

In the case of `COc1c(C(C)n2nc(C)c3c(N)ncnc32)cc(Cl)c(Cl)c1C1CN(C[C@H](C)O)C1` (stereo partly drawn) [Example 301, (2S)-1-(3-{3-[1-(4-Amino-3-methyl-1H-pyrazolo[3,4-d]pyrimidin-1-yl)ethyl]-5,6-dichloro-2-methoxyphenyl}azetidin-1-yl)propan-2-ol], the IC50 is less than 10 nM.

Take `COc1c(C(C)n2nc(C)c3c(N)ncnc32)cc(Cl)c(C)c1C1CNC(=O)O1` (centres unmarked) [Example 325, 5-{3-[1-(4-Amino-3-methyl-1H-pyrazolo[3,4-d]pyrimidin-1-yl)ethyl]-5-chloro-2-methoxy-6-methylphenyl}-1,3-oxazolidin-2-one]: the IC50 is less than 10 nM.

As to `CCOc1c(C(C)n2nc(C)c3c(N)ncnc32)cc(Cl)c(C#N)c1N1CC(C#N)C1` (racemic) [Example 342, 1-{3-[1-(4-amino-3-methyl-1H-pyrazolo[3,4-d]pyrimidin-1-yl)ethyl]-5-chloro-6-cyano-2-ethoxyphenyl}azetidine-3-carbonitrile], the IC50 was less than 10 nM.

With `CCOc1c(C(C)n2nc(C)c3c(N)ncnc32)cc(Cl)c(C#N)c1C1CN(S(=O)(=O)CC)C1` (single isomer, unassigned) [Example 249, 4-[1-(4-Amino-3-methyl-1H-pyrazolo[3,4-d]pyrimidin-1-yl)ethyl]-6-chloro-3-ethoxy-2-[1-(ethylsulfonyl)azetidin-3-yl]benzonitrile], the IC50 was less than 10 nM.
